Values quoted from earlier work, collected in patent US20100124560A1, “MULTI PORTION INTRA-ORAL DOSAGE FORM AND USE THEREOF” (McNEIL AB, priority 2008, published 2010).
Where two headings read alike, the source gives them in different places.

What was measured:
[1] = pKa value lying in interval 8-9.6

| Solubility in water (in water) | SMILES | further results |
| --- | --- | --- |
| 34.2 g/kg | CC[C@H](C)[C@H](N)C(=O)O [Isoleucine] |  |
|  | NC(=O)C[C@H](N)C(=O)O [Aspargine] | pKa value (in interval 8-9.6) [1]: 8.73 |
| 43.5 g/kg | N[C@@H](Cc1c[nH]cn1)C(=O)O [Histidine] |  |
| 56 g/kg | CSCC[C@H](N)C(=O)O [Methionine] |  |
|  | NCCCC[C@H](N)C(=O)O [Lysine] | Solubility in water, g/kg: Very soluble^a)b) |
|  | N[C@@H](CS(=O)(=O)O)C(=O)O [Cysteic acid] | Solubility in water, g/kg (in water): Very soluble |
| 27.9 g/kg | N[C@@H](Cc1ccccc1)C(=O)O [Phenylalanine] |  |
| 42 g/kg | NC(=O)CC[C@H](N)C(=O)O [Glutamine] |  |
| 22.0 g/kg | CC(C)C[C@H](N)C(=O)O [Leucine] |  |
|  | N[C@@H](CO)C(=O)O [Serine] | pKa value (in interval 8-9.6) [1]: 9.05 |
| 88.5 g/kg | CC(C)[C@H](N)C(=O)O [Valine] |  |
